From patent publication US20190046662A1, “Compositions and Methods for Treating Neuropathic Pain” (Rutgers, The State University of New Jersey, priority 2016, published 2019)

Experiments:
Type in all cases: in vivo, rat
hTac1-hM4D = target: T1, hTac1-hM4D (Homo sapiens, UniProt P08173, A203G/Y113C); test: von Frey detection threshold, Tac1-DREADD (hTac1-hM4D) in right trigeminal ganglion, non-CCI animals; conditions: females, n=7 per group, CNO i.p. vs vehicle
T1 construct: expressed in transfected cells; host or cells: rat trigeminal ganglion neurons in vivo, viral vector with Tac1 promoter
T1 sequence (P08173 1-479 Y113C/A203G): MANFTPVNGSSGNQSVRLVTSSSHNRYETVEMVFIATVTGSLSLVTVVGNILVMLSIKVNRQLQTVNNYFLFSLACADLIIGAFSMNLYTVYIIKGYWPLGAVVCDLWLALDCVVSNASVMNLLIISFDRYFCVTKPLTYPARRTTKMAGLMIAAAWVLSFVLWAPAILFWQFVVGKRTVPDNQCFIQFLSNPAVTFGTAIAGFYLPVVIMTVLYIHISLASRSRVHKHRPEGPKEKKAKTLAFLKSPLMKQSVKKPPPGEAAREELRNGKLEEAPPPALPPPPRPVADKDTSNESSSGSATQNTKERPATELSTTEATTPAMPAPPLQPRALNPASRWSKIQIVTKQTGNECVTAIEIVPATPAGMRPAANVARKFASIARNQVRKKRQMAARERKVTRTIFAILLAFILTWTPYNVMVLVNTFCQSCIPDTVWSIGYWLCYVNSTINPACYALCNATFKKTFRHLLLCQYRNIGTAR
Source text: The effects of Tac1-DREADD activation with CNO on von Frey detection threshold were also studied (FIG. 7). All animals (female, n=7 per group) had Tachykinin 1-DREADD (hTac1-hM4D; Tac1 promoter driven DREADD) injected into the right trigeminal ganglion. Average von Frey detection thresholds (±SEM) are plotted following intraperitoneal administration of CNO or vehicle.

hSyn-hM4D [1] = target: T2, hSyn-hM4D (Homo sapiens, UniProt P08173, A203G/Y113C); test: von Frey detection threshold, synapsin-DREADD (hSyn-hM4D) in right trigeminal ganglion, non-CCI animals; conditions: n=7 per group, CNO i.p. vs vehicle
T2 construct: expressed in transfected cells; host or cells: rat trigeminal ganglion neurons in vivo, viral vector with synapsin promoter
T2 sequence (P08173 1-479 Y113C/A203G): T1 sequence (P08173 1-479 Y113C/A203G)
Source text: The effects of synapsin-DREADD activation with CNO on von Frey detection threshold were studied (FIG. 3). The von Frey assay uses von Frey fibers, which are small pieces of nylon rod of varying diameters, to test a rodent's sensitivity to a mechanical stimulus. The von Frey assay is generally considered a mechanical nociceptive threshold test. All animals (males, n=7 per group; females, n=7 per group) had synapsin-DREADD (hSyn-hM4D; synapsin promoter driven DREADD) injected into the right trigeminal ganglion. Average von Frey detection thresholds (±SEM) were plotted following intraperitoneal (i.p.) administration of CNO or vehicle.

hSyn-hM4D [2] = target: T2, hSyn-hM4D; test: Pin-prick response score, synapsin-DREADD (hSyn-hM4D) in right trigeminal ganglion, non-CCI animals; conditions: n=7 per group, CNO i.p. vs vehicle
Source text: The effects of synapsin-DREADD activation with CNO on pin-prick response score were also studied (FIG. 4). The pin-prick assay is generally considered a nociceptive threshold test. All animals (males, n=7 per group; females, n=7 per group) had synapsin-DREADD (hSyn-hM4D) injected into the right trigeminal ganglion. Average pin-prick response scores (±SEM) are plotted following intraperitoneal (i.p.) administration of CNO or vehicle.

[3] = target: T3, hM4Di receptors expressed in TG (Homo sapiens, UniProt P08173, A203G/Y113C); test: Orofacial formalin test after AAV5-hSyn-hM4Di-mCherry injection into TG (Example 1); conditions: rats with AAV5-hSyn-hM4Di-mCherry in TG, vs vehicle
T3 construct: expressed in transfected cells; host or cells: rat trigeminal ganglion neurons in vivo, transduced with AAV5 (synapsin promoter)
T3 sequence (P08173 1-479 Y113C/A203G): T1 sequence (P08173 1-479 Y113C/A203G)
Source text: The orofacial formalin model is well established for inducing behavioral and molecular changes indicating pain. The formalin model mimics the clinical situation of an acute insult that wanes rapidly. Models of trigeminal pain and their behavioral and molecular assessments have been described (Benoliel et al. (2001) Pain 91:111-21; Benoliel et al. (2001) Neurosci. Lett., 297:151-4; Benoliel et al. (2002) Pain 97:203-12; Benoliel et al. (2002) Pain 99:567-78). There is increased and intense directed facial grooming following injection of formalin into the rat vibrissal pad, and the duration of grooming is thought to represent the level of pain (Clavelou et al. (1995) Pain 62:295-301; Raboisson et al. (1995) J. Neurophysiol., 73:496-505; Sukriti et al. (2004) Methods Find Exp. Clin. Pharmacol., 26:253-6). At day 37 after virus injection (to allow for viral transfection and DREADD expression), acute pain was induced by subcutaneous injection of 50 μL of 1.5% formalin into the rat's vibrissal pad. Formalin activates Aδ and C nociceptors as well as trigeminal and spinal nociceptive neurons. Formalin-induced unilateral pain is biphasic, with an early short-lasting (3-5 minutes) phase, followed after a quiescent period by a second, prolonged (20-40 minutes) tonic phase. The orofacial formalin test is a valid and reliable way of producing and quantifying nociception in the trigeminal region of the rat (Raboisson et al. (2004) Neurosci. Biobehay. Rev., 28:219-26; Le Bars et al. (2001) Pharmacol. Rev., 53:597-652; Vos et al. (1998) Pain 76:173-8). The concentration of formalin used allows for the detection of both hypo- and hyperalgesic effects. The time that the animal spends rubbing the injected area with fore- or hind paws was recorded. Thirty minutes prior to injecting formalin the animals received CNO ([…], ip) or vehicle treatment.

[4] = CNO ip 30 min prior to formalin

## C[N+]1([O-])CCN(C2=Nc3cc(Cl)ccc3Nc3ccccc32)CC1 [CNO, clozapine N-oxide]
hTac1-hM4D; F=0.4, P=0.6
  von Frey detection threshold, contralateral vibrissal pad: no significant effect
hTac1-hM4D; F=1.4, P=0.3
  von Frey detection threshold, ipsilateral vibrissal pad: no significant effect
hSyn-hM4D [1]; females, D28, 30 min after CNO, F=1.2, P=0.3
  von Frey detection threshold, ipsilateral vibrissal pad: no significant effect
hSyn-hM4D [1]; females, F=2.8, P=0.1
  von Frey detection threshold, contralateral vibrissal pad: no significant effect
hSyn-hM4D [1]; males, F=1.2, P=0.3
  von Frey detection threshold, contralateral vibrissal pad: no significant effect
hSyn-hM4D [1]; males, F=3.3, P=0.1
  von Frey detection threshold, ipsilateral vibrissal pad: no significant effect
hSyn-hM4D [2]; females, F=0.1, P=0.7
  pin-prick response score, contralateral side: no significant effect
hSyn-hM4D [2]; females, F=0.1, P=0.8
  pin-prick response score, ipsilateral side: no significant effect
hSyn-hM4D [2]; males, F=1.3, P=0.3
  pin-prick response score, contralateral (left) vibrissal pad: No significant effect
hSyn-hM4D [2]; males, F=9.8, P=0.01
  pin-prick response score, ipsilateral (right) vibrissal pad: significantly reduced
[3]; CNO (10 mg/ml, ip) 30 min prior to 50 μL 1.5% formalin s.c. vibrissal pad, day 37 after virus, n=3/group, p<0.04
  total time spent grooming after formalin: significantly reduced
[3]; [4]
  grooming in early phase (<9 minutes) after formalin: trends to reduce
  grooming in late phase (9-45 minutes) after formalin: trends to reduce
